The test system of experiment [1] is Staphylococcus aureus. Description: Antimicrobial activity against Staphylococcus aureus ATCC 25923 assessed as zone of inhibition at 100 ug/ml after 24 hrs by disc diffusion method. The class given is functional. Conditions: ATCC 25923, 24 h, read-out: IZ. For orientation: In agar diffusion tests the substance spreads into inoculated agar from a disc or well.

In the next experiment the test system is Klebsiella pneumoniae. The experiment can be described thus: Antimicrobial activity against Klebsiella pneumoniae ATCC 700603 assessed as zone of inhibition at 100 ug/ml after 24 hrs by disc diffusion method. The class given is functional. Conditions: ATCC 700603, 24 h, read-out: IZ.
Another experiment relates to Streptococcus agalactiae. The experiment can be described thus: Antimicrobial activity against Streptococcus agalactiae 55118 assessed as zone of inhibition at 100 ug/ml after 24 hrs by disc diffusion method. The experiment is classed as functional. Conditions: Streptococcus agalactiae, 55118, 24 h; read-out: IZ.
Experiment [2] relates to Candida albicans. Description: Antifungal activity against Candida albicans. The class given is functional.
The test system of experiment [3] is Staphylococcus aureus. Description: Antimicrobial activity against Staphylococcus aureus. The class given is functional.
In another experiment the test system is Nakaseomyces glabratus. The experiment can be described thus: Antifungal activity against Candida glabrata. The class given is functional.
Experiment [4] relates to Pseudomonas aeruginosa. The experiment can be described thus: Antimicrobial activity against Pseudomonas aeruginosa. The class given is functional.
Experiment [5] deals with Escherichia coli. The experiment can be described thus: Antimicrobial activity against Escherichia coli. The class given is functional.
In a further experiment the test system is Candida tropicalis. The experiment can be described thus: Antifungal activity against Candida tropicalis. The class given is functional.
Experiment [6] has as its system Bacillus subtilis. The experiment can be described thus: Antimicrobial activity against Bacillus subtilis. The experiment is classed as functional.
For experiment [7], the system named is Bacillus cereus. Description: Antimicrobial activity against Bacillus cereus. The experiment is classed as functional.
The subject of experiment [8] is Candida albicans. The experiment can be described thus: Antifungal activity against Candida albicans assessed as zone of inhibition at 250 ug/ml. The experiment is classed as functional. Conditions: read-out: IZ.
The subject of experiment [9] is Pseudomonas aeruginosa. Description: Antimicrobial activity against Pseudomonas aeruginosa assessed as zone of inhibition at 250 ug/ml. The class given is functional. Conditions: read-out: IZ.
The test system of experiment [10] is Bacillus cereus. Description: Antimicrobial activity against Bacillus cereus assessed as zone of inhibition at 250 ug/ml. The class given is functional. Conditions: read-out: IZ.
Experiment [11] deals with Aspergillus niger. The experiment can be described thus: Antifungal activity against Aspergillus niger assessed as zone of inhibition at 250 ug/ml. Conditions: read-out: IZ. The class given is functional.
In experiment [12] the test system is Aspergillus niger. Description: Antifungal activity against Aspergillus niger. The class given is functional.
The subject of experiment [13] is Escherichia coli. The experiment can be described thus: Antimicrobial activity against Escherichia coli assessed as zone of inhibition at 250 ug/ml after 24 hrs by disk diffusion method. The class given is functional. Conditions: read-out: IZ.
Experiment [14] has as its system Escherichia coli. The experiment can be described thus: Antimicrobial activity against Escherichia coli assessed as zone of inhibition at 250 ug/ml. Conditions: read-out: IZ. The experiment is classed as functional.
The subject of experiment [15] is Staphylococcus aureus. The experiment can be described thus: Antimicrobial activity against Staphylococcus aureus assessed as zone of inhibition at 250 ug/ml. The class given is functional. Conditions: read-out: IZ.
The subject of experiment [16] is Aspergillus flavus. The experiment can be described thus: Antifungal activity against Aspergillus flavus. The experiment is classed as functional.
The test system of another experiment is Fusarium oxysporum. The experiment can be described thus: Antifungal activity against Fusarium oxysporum. The experiment is classed as functional.
Another experiment deals with Pichia norvegensis. The experiment can be described thus: Antifungal activity against Candida mycoderma after 24 hrs. The experiment is classed as functional.
Experiment [17] relates to Candida albicans. Description: Antifungal activity against Candida albicans ATCC 76615 after 24 hrs. The class given is functional. Conditions: ATCC 76615, 24 h.
The subject of a further experiment is Shigella dysenteriae. The experiment can be described thus: Antimicrobial activity against Shigella dysenteriae after 24 hrs by two-fold broth serial dilution method. The experiment is classed as functional.
Experiment [18] deals with Pseudomonas aeruginosa. Description: Antimicrobial activity against Pseudomonas aeruginosa ATCC 27853 after 24 hrs by two-fold broth serial dilution method. Conditions: ATCC 27853, 24 h. The class given is functional.
For another experiment, the system named is Micrococcus luteus. Description: Antibacterial activity against Micrococcus luteus ATCC 4698 after 24 hrs by two-fold broth serial dilution method. Conditions: ATCC 4698, 24 h. The experiment is classed as functional.
The test system of experiment [19] is Staphylococcus aureus. Description: Antibacterial activity against methicillin resistant Staphylococcus aureus N315 after 24 hrs by two-fold broth serial dilution method. The class given is functional. Conditions: N315, 24 h.
In experiment [20] the test system is Bacillus subtilis. Description: Antibacterial activity against Bacillus subtilis ATCC 21216 after 24 hrs by two-fold broth serial dilution method. The class given is functional. Conditions: ATCC 21216, 24 h.
Experiment [21] deals with Aspergillus flavus. Description: Antifungal activity against Aspergillus flavus after 24 hrs. The class given is functional.
Experiment [22] relates to Escherichia coli. The experiment can be described thus: Antimicrobial activity against Escherichia coli JM 109 after 24 hrs by two-fold broth serial dilution method. The class given is functional. Conditions: JM 109, 24 h.
The subject of another experiment is Saccharomyces cerevisiae. The experiment can be described thus: Antifungal activity against Saccharomyces cerevisiae after 24 hrs. The class given is functional.
The subject of a further experiment is Cyberlindnera jadinii. The experiment can be described thus: Antifungal activity against Candida utilis after 24 hrs. The experiment is classed as functional. Conditions: Williopsis jadinii.
For the next experiment, the system named is Salmonella typhimurium. The experiment can be described thus: Antimicrobial activity against Salmonella typhimurium. The class given is functional, Salmonella enterica subsp. enterica serovar Typhimurium. Conditions: Salmonella enterica.
In the next experiment the test system is Proteus mirabilis. Description: Antimicrobial activity against Proteus mirabilis. The class given is functional.
Another experiment concerns Proteus vulgaris. The experiment can be described thus: Antimicrobial activity against Proteus vulgaris. The class given is functional.
A further experiment concerns Bacillus thuringiensis. The experiment can be described thus: Antimicrobial activity against Bacillus thuringiensis. The class given is functional.
Another experiment deals with Streptococcus pneumoniae. The experiment can be described thus: Antimicrobial activity against Streptococcus pneumoniae. The experiment is classed as functional.
Another experiment has as its system Prescottella equi. Description: Antimicrobial activity against Rhodococcus equi. The experiment is classed as functional. Conditions: Rhodococcus (subgen. Prescottella) equi.

The structures appear in SMILES notation. Converted amounts (≈) assume the structure as drawn.

`COc1nc(N)nc(OC)c1Sc1nnnn1Cc1ccccc1`: the zone of inhibition at 100 µg/mL in the experiment with Staphylococcus aureus [1], in the experiment on Klebsiella pneumoniae and in the experiment on Streptococcus agalactiae was 10 to 24 mm each time.
In the case of `Cc1cc2c(=O)c(OCc3nnn[nH]3)c(-c3ccc(F)cc3)oc2cc1Cl`, the MIC against Candida albicans [2] was in the range of 12.5 to 25 µg/mL (≈ 32.3 to 64.6 µM); with Staphylococcus aureus [3], 50 to 400 µg/mL (≈ 129 to 1030 µM); against Nakaseomyces glabratus, 12.5 to 25 µg/mL (≈ 32.3 to 64.6 µM); in the experiment with Pseudomonas aeruginosa [4], 50 to 400 µg/mL (≈ 129 to 1030 µM); against Escherichia coli [5], 50 to 400 µg/mL (≈ 129 to 1030 µM); in the experiment on Candida tropicalis, 12.5 to 25 µg/mL (≈ 32.3 to 64.6 µM). In the experiment on Bacillus subtilis [6], this compound registered an MIC of 50 to 400 µg/mL (≈ 129 to 1030 µM).
`O=[N+]([O-])c1cccc(-c2nnnn2-c2nc3ccccc3s2)c1`: the MIC with Bacillus cereus [7], in the experiment on Candida albicans [2], in the experiment on Staphylococcus aureus [3], against Aspergillus niger [12], against Pseudomonas aeruginosa [4] and in the experiment with Escherichia coli [5] was 50 to 100 µg/mL (≈ 154 to 308 µM) throughout. The zone of inhibition at 250 µg/mL was in the range of 16 to 26 mm in the experiment with Candida albicans [8]; 16 to 26 mm in the experiment with Pseudomonas aeruginosa [9]; 16 to 26 mm with Bacillus cereus [10]; 16 to 26 mm in the experiment with Aspergillus niger [11]; 18 to 26 mm in the experiment on Escherichia coli [13]; 16 to 26 mm in the experiment on Escherichia coli [14]. In the experiment with Staphylococcus aureus [15], the zone of inhibition at 250 µg/mL fell in the range of 16 to 26 mm.
Turning to `CCCCCCn1nnnc1Sc1c(OC)nc(N)nc1OC`, the zone of inhibition at 100 µg/mL in the experiment on Staphylococcus aureus [1], in the experiment with Klebsiella pneumoniae and in the experiment on Streptococcus agalactiae was 10 to 24 mm each time.
For `COc1ccc(-n2cc(-c3nnn[nH]3)nn2)cc1`, the MIC with Aspergillus flavus [16], in the experiment with Fusarium oxysporum and with Aspergillus niger [12] was 100 µg/mL (≈ 411 µM) each time.
Regarding `Cc1cc(=O)oc2cc(OCC(O)Cn3nnnc3C)cc(OCC(O)Cn3nnnc3C)c12` (stereo unspecified), the MIC with Pichia norvegensis, with Candida albicans [17], against Shigella dysenteriae, in the experiment on Pseudomonas aeruginosa [18], against Micrococcus luteus and against Staphylococcus aureus [19] was 32 to 512 µg/mL (≈ 67.7 to 1080 µM) throughout. The minimum inhibitory concentration (MIC) in the experiment with Bacillus subtilis [20], with Aspergillus flavus [21], with Escherichia coli [22], in the experiment on Saccharomyces cerevisiae and in the experiment with Cyberlindnera jadinii was 32 to 512 µg/mL (≈ 67.7 to 1080 µM) throughout.
As for `Cc1cc(=O)oc2cc(OCC(O)Cn3cnnn3)cc(OCC(O)Cn3cnnn3)c12` (stereo unspecified), the MIC with Pichia norvegensis, against Candida albicans [17], with Shigella dysenteriae, with Pseudomonas aeruginosa [18], in the experiment with Micrococcus luteus and in the experiment on Staphylococcus aureus [19] was 32 to 512 µg/mL (≈ 72 to 1150 µM) in each case. Further, the MIC against Bacillus subtilis [20], against Aspergillus flavus [21], against Escherichia coli [22], in the experiment on Saccharomyces cerevisiae and against Cyberlindnera jadinii was 32 to 512 µg/mL (≈ 72 to 1150 µM) throughout.
In the case of `Cc1nnc(SCC2=C(C(=O)O)N3C(=O)[C@@H](NC(=O)Cn4cnnn4)[C@H]3SC2)s1` [CEFAZOLIN], the MIC against Salmonella typhimurium, in the experiment with Proteus mirabilis, with Proteus vulgaris, in the experiment with Bacillus thuringiensis, in the experiment on Streptococcus pneumoniae and in the experiment with Prescottella equi was 0.063 to 8 µg/mL (≈ 0.139 to 17.6 µM) in each case. The minimum inhibitory concentration (MIC) in the experiment with Bacillus subtilis [6] is 0.063 to 8 µg/mL (≈ 0.139 to 17.6 µM).
Regarding `Clc1ccccc1C(c1ccccc1)(c1ccccc1)n1ccnc1` [CLOTRIMAZOLE], the MIC in the experiment on Aspergillus flavus [16], in the experiment on Fusarium oxysporum and with Aspergillus niger [12] was 100 µg/mL (≈ 290 µM) each time.
Take `CC[C@H]1OC(=O)[C@H](C)[C@@H](O[C@H]2C[C@@](C)(OC)[C@@H](O)[C@H](C)O2)[C@H](C)[C@@H](O[C@@H]2O[C@H](C)C[C@H](N(C)C)[C@H]2O)[C@](C)(O)C[C@@H](C)C(=O)[C@H](C)[C@@H](O)[C@]1(C)O` [ERYTHROMYCIN]: the zone of inhibition at 100 µg/mL in the experiment on Staphylococcus aureus [1], in the experiment on Klebsiella pneumoniae and in the experiment with Streptococcus agalactiae was 10 to 24 mm each time.
With `OC(Cn1cncn1)(Cn1cncn1)c1ccc(F)cc1F` [FLUCONAZOLE], the MIC in the experiment with Pichia norvegensis was 1 to 256 µg/mL (≈ 3.27 to 836 µM); in the experiment with Candida albicans [17] it was 1 to 256 µg/mL (≈ 3.27 to 836 µM); against Shigella dysenteriae it was 1 to 256 µg/mL (≈ 3.27 to 836 µM); against Candida albicans [2], 25 µg/mL (≈ 81.6 µM); with Pseudomonas aeruginosa [18], 1 to 256 µg/mL (≈ 3.27 to 836 µM); in the experiment with Micrococcus luteus, 1 to 256 µg/mL (≈ 3.27 to 836 µM). Also, the MIC against Staphylococcus aureus [19] was 1 to 256 µg/mL (≈ 3.27 to 836 µM); against Staphylococcus aureus [3] it was 25 µg/mL (≈ 81.6 µM); against Aspergillus niger [12], 25 µg/mL (≈ 81.6 µM); against Bacillus subtilis [20], 1 to 256 µg/mL (≈ 3.27 to 836 µM); with Aspergillus flavus [21] it was 1 to 256 µg/mL (≈ 3.27 to 836 µM); with Escherichia coli [22], 1 to 256 µg/mL (≈ 3.27 to 836 µM). Besides, the MIC with Saccharomyces cerevisiae was 1 to 256 µg/mL (≈ 3.27 to 836 µM); against Pseudomonas aeruginosa [4], 25 µg/mL (≈ 81.6 µM); against Cyberlindnera jadinii, 1 to 256 µg/mL (≈ 3.27 to 836 µM); against Escherichia coli [5] it was 25 µg/mL (≈ 81.6 µM).
Consider `CCn1cc(C(=O)O)c(=O)c2cc(F)c(N3CCNCC3)cc21` [NORFLOXACIN], for which the MIC in the experiment with Pichia norvegensis, in the experiment with Candida albicans [17], in the experiment on Shigella dysenteriae, against Pseudomonas aeruginosa [18], in the experiment on Micrococcus luteus and in the experiment with Staphylococcus aureus [19] was 1 to 16 µg/mL (≈ 3.13 to 50.1 µM) throughout. The MIC with Bacillus subtilis [20], against Aspergillus flavus [21], against Escherichia coli [22], against Saccharomyces cerevisiae and in the experiment on Cyberlindnera jadinii was 1 to 16 µg/mL (≈ 3.13 to 50.1 µM) each time.

One may read the MIC as the smallest concentration in the dilution series that meets the test's criterion for growth inhibition. A low value points to greater potency.

(Values after ChEMBL document CHEMBL4342421, “Current scenario of tetrazole hybrids for antibacterial activity” (Eur J Med Chem, 2019).)
